Assay results as given in patent US20160354333A1, “COMPOSITIONS OF POLYUNSATURATED FATTY ACIDS AND METHODS OF USE THEREOF” (UND Life Sciences, LLC, priority 2015, published 2016).
Like-named read-outs stand apart in the source and are kept apart here. Blank lines part the entries; values can stand above or below the molecule they belong to.

Assays:
[1] = system: IMR-32 cells; test: Growth of IMR-32 cells; type: cell-based; set-up: unit of the concentration uncertain
Text: hypercalcemia, tumor cancer cell proliferation, tumor angiogenesis and resistance of tumor to anti-VEGF therapy (see FIG. 1). In addition, PGE2 may have the ability to modulate NO generation. […] Though this growth promoting action of indomethacin and NDGA could be attributed to their non-specific anti-oxidant actions, it is equally possible that some unknown products have been generated from PUFAs that have growth promoting actions. […] Accordingly, treatment of tumor cells with PUFAs according to embodiments of the invention is believed to be a viable treatment method for cancers, such as glioma.

[2] = system: IFN-sensitive / IFN-resistant tumor cells; test: Apoptosis and lipid droplet accumulation in IFN-sensitive and IFN-resistant tumor cells; type: cell-based; conditions: IFN-resistant cells pre-treated with GLA/AA, then exposed to IFN
Text: The present inventor also unexpectedly discovered that the anti-cancer actions of interferon (IFN) and tumor necrosis factor-a (TNF-a) need the presence of substantial amounts of cellular content of GLA, AA, EPA and DHA (˜GLA≧AA>EPA>DHA).

[3] = system: bone marrow cells of mice; test: Side effects of gamma-radiation and cis-platinum on bone marrow cells of mice; type: in vivo
Text: Thus, it appears that when PUFAs and conventional anti-cancer drugs/agents are given together they not only act to potentiate the cytotoxic action of each other on the tumor cells and thus, produce synergistic and/or additive action on their ability to eliminate the tumor cells but it will also lead to elimination, reduction, or amelioration of the side effects of conventional anti-cancer agents. Since, PUFAs are able to potentiate the cytotoxic action(s) of conventional anti-cancer drugs (agents) and cytokines; it is also possible that this will lead to a significant reduction in the doses of these latter agents without compromising the ultimate benefit namely, elimination of tumor cells or the tumor. Accordingly, certain embodiments are directed to methods comprising administering a PUFA (e.g., GLA) containing compositions as described herein and a conventional anti-cancer drug to a subject in need thereof.

[4] = system: tumor cells; test: Tumoricidal action: ability to induce apoptosis of tumor cells; type: cell-based
Text: For instance, GLA is metabolized in the tumor cells to form 15-, 12- and 8-OH 20 carbon and 13-OH 18 carbon fatty acid derivatives that seem to be responsible for the apoptosis of tumor cells. In contrast to this, DGLA could go through an exclusive C-8 oxygenation pathway during COX-catalyzed lipid peroxidation in addition to a C-15 oxygenation pathway shared by both DGLA and AA, and that the exclusive C-8 oxygenation could lead to the production of distinct DGLA's free radical derivatives that may be correlated with DGLA's anti-proliferation activity. As shown below DGLA can go through a unique C-8 oxygenation reaction pathway, in addition to a C-15 oxygenation pathway shared by both DGLA and AA.
similar to the one that is formed from DGLA as described above) product, instead of the more common aldehyde. Thus, it is evident that the peroxidation products formed from GLA, DGLA and AA are totally different, and this may account for the differences in their tumoricidal action wherein GLA>DGA>AA with regard to their ability to induce apoptosis of tumor cells.

[5] = 1 mg GLA, 0.01% ethanol PBS/saline; GLA:lithium ratio exceeding about 1:0.01
Description: The effect of lithium as an exemplary stabilizing agent in compositions of GLA was tested as follows. To 1 mg (1000 μg) of GLA dissolved in a solution of PBS/saline comprising 0.01% ethanol was added different concentrations of lithium (as lithium chloride), and after a specific period of incubation the concentration of GLA present in the solution was tested.

[6] = Description: In a separate experiment, GLA was dissolved in saline/PBS (pH 7.4) comprising 0.01% ethanol at 37° C. or saline/PBS (pH 7.4), and different concentrations of lithium was added. At the end of the incubation time the concentration of GLA present was tested. […] The same test system is used to test the effect of Mg, Mn, Zn, Fe, Cu salts on the stability of GLA. The concentrations of these metals used are same as that of Lithium.
[7] = 0.01% ethanol/saline/PBS pH 7.4 at 37° C. versus saline/PBS, no lithium
Text: FIG. 7 is additional stability data for GLA solutions comprising 0.01% ethanol/saline/PBS or saline/PBS without added lithium.

[8] = system: normal cells; conditions: 10 μg/ml GLA, 1×10^4 cells, 72 hrs
Text: FIG. 9 provides cytotoxicity data in normal cells for GLA solutions in varying concentrations of ethanol.

[9] = system: cancer; conditions: free acid form versus other forms
Text: In general, it was believed that the potency of actions of a free acid form is equal to or similar to sodium salt, ethyl ester, methyl ester or other forms of salts, esters, glycerides, amides, or phospholipids, or alkylated, alkoxylated, halogenated, sulfonated, or phosphorylated forms of the fatty acid.

[10] = system: RIN cells
[11] = system: cancer cells; conditions: 72 hrs
Description: 1×10^4 cancer cells or normal cells were incubated with the GLA composition for 72 hrs and viability of the cells in vitro determined.

[12] = system: tumor cells; conditions: solvent (ethyl alcohol) content above 0.01% and lower than 0.001%

SMILES: CCCCC/C=C\C\C=C/C=C/C=C/[C@@H](SC[C@H](N)C(=O)NCC(=O)O)[C@@H](O)CCCC(=O)O [LTD4]
growth of IMR-32 cells [1]: growth inhibitory action

SMILES: CCCCC/C=C\C/C=C\C/C=C\C/C=C\CCCC(=O)O [AA, arachidonic acid, reference compound]
apoptosis and lipid droplets [2]: both induction of apoptosis and accumulation of lipid droplets in the tumor cells were seen
side effects of gamma-radiation and cis-platinum to bone marrow cells [3]: prevent or ameliorate the side effects
rank order of ability to induce apoptosis of tumor cells [4]: GLA>DGA>AA

SMILES: CCCCC/C=C\C/C=C\C/C=C\CCCCCCC(=O)O [DGLA, di-homo gamma linolenic acid]
rank order of ability to induce apoptosis of tumor cells [4]: GLA>DGA>AA

SMILES: CCCCC[C@H](O)/C=C/C=C\C=C\C=C\[C@@H](O)[C@@H](O)CCCC(=O)O [LXA4]
growth of IMR-32 cells [1]: inhibited the growth of IMR-32 cells

SMILES: COc1ccc2c(c1)c(CC(=O)O)c(C)n2C(=O)c1ccc(Cl)cc1 [indomethacin]
growth of IMR-32 cells ([1]; 60 (unit uncertain)): enhanced the growth of IMR-32 cells

stability of GLA (percentage of original GLA remaining) [5]: stability of GLA decreased
concentration of GLA relative to lithium ([6]; Mg, Mn, Zn, Fe, Cu salts, same concentrations and incubation periods as lithium): decrease the concentration of GLA
stability of GLA (percentage of original GLA remaining) ([6]; comparison solutions, printed as 'solutions with ethanol'): less stable
stability of GLA (percentage of original GLA remaining) ([6]; saline/PBS pH 7.4 with 0.01% ethanol at 37° C. plus lithium): stabilizing effect
stability of GLA (percentage of original GLA remaining) [7]: stabilizing effect
SMILES: CCCCC/C=C\C/C=C\C/C=C\CCCCC(=O)O [GLA, gamma-linolenic acid]
background death of cells [8]: 10-15%
apoptosis and lipid droplets [2]: both induction of apoptosis and accumulation of lipid droplets in the tumor cells were seen
side effects of gamma-radiation and cis-platinum to bone marrow cells [3]: prevent or ameliorate the side effects
rank order of ability to induce apoptosis of tumor cells [4]: GLA>DGA>AA
potency of anti-cancer action [9]: more potent than sodium salt, ethyl ester, methyl ester
generation of LXA4 ([10]; PUFAs 15 μg, pretreatment with alloxan, simultaneous treatment with STZ): greater than or equal to all other fatty acids tested
formation of LXA4 ([10]; studies performed in support of the invention): enhances the formation of LXA4
background death of cells ([11]; 10 μg/ml GLA, 1×10^4 cells): 10-15%
activity, stability and tumoricidal action [12]: relatively inactive, unstable and its tumoricidal action inefficient

SMILES: CC(Cc1ccc(O)c(O)c1)C(C)Cc1ccc(O)c(O)c1 (stereo not shown) [nordihydroguaiaretic acid]
growth of IMR-32 cells ([1]; 20 (unit uncertain)): enhanced the growth of IMR-32 cells

SMILES: CCCCC[C@H](O)/C=C/[C@H]1[C@H](O)CC(=O)[C@@H]1C/C=C\CCCC(=O)O [PGE2]
growth of IMR-32 cells [1]: growth inhibitory action

SMILES: CCCCC[C@H](O)/C=C/[C@H]1[C@H](O)CC(=O)[C@@H]1CCCCCCC(=O)O [PGE1]
growth of IMR-32 cells [1]: growth inhibitory action

SMILES: CCO [ethanol]
concentration of ethanol resulting in cell death ([11]; with 10 μg/ml GLA in saline/PBS): above 0.01%
